Test results published in patent publication US20260256751A1, “COMBINATION OF BETA-2-ADRENERGIC RECEPTOR AGONISTS AND GLP-1 RECEPTOR AGONISTS FOR USE IN TREATING HYPERGLYCAEMIA” (ATROGI AB, priority 2023, published 2026).

Assays:
[1] = tested on: differentiated L6-myotubes; test: cAMP production relative to isoprenaline (Biological example 2 of WO 2019/053427); assay type: cell-based; conditions: 0.25 h, compound at 10 μM, activity relative to isoproterenol at 10 μM
Method in brief: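 Differentiated L6 myotubes stimulated 15 min with test compound or isoprenaline, each at final 1×10^−5 M, in HBSS with 1% BSA, 5 mM HEPES, 1 mM IBMX, pH 7.4. cAMP production by the compound expressed relative to that induced by the same concentration of isoprenaline.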

[2] = tested on: differentiated L6-myotubes; test: Glucose uptake screen (Biological example 1 of WO 2019/053427); assay type: cell-based; conditions: compound at 10 μM, activity relative to isoproterenol at 10 μM, read-out: Biological example 1 of WO 2019/053427 (GU)
Method in brief: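 Rat L6 myoblasts were differentiated into myotubes over 7 days in 2% FBS, then serum-starved overnight. Cells were stimulated with 1×10^−5 M compound plus β2 antagonist ICI-118551 for 1 h 40 min and re-dosed for 20 min in glucose-free medium. Uptake of 50 nM ^3H-2-deoxyglucose over 10 min was counted after NaOH lysis.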

Structure (SMILES)	Emax at 10 µM [1]	Emax at 10 µM [2]
CCC[C@H]1CCC[C@H]([C@@H](O)c2cc(F)cc(F)c2)N1 [Compound 66, (S)-[(2R,6S)-6-propyl-2-piperidyl](3,5-difluorophenyl)methanol]	< 25%	25 to 50%
CC12CC(C1)[C@@H]([C@@H](O)c1cccc(F)c1)N2 [Compound 189, (S)-{(S)-1-methyl-2-azabicyclo[2.1.1]hex-3-yl}(m-fluorophenyl)methanol]	< 25%	50 to 75%
CCCCNC[C@H](O)c1ccc(F)cc1O [Compound 81, (R)-2-(butylamino)-1-(4-fluoro-2-hydroxyphenyl)-1-ethanol]	< 25%	50 to 75%
CC1(C)C[C@@H]([C@H](O)c2ccccc2F)N1 [Compound 202, (R)-[(S)-4,4-dimethyl-2-azetidinyl](o-fluorophenyl)methanol]	< 25%	< 25%
O[C@@H](c1cncc(F)c1)C12CCC(COCc3ccc(F)cc3)(CC1)N2 [Compound 442, (S)-(4-{[(p-fluorophenyl)methoxy]methyl}-7-azabicyclo[2.2.1]hept-1-yl)(5-fluoro-3-pyridyl)methanol]	< 25%	25 to 50%
C[C@H]1CC[C@@H]([C@@H](O)c2cccc(O)c2)N1 (racemic) [Compound 41, Racemic mixture of m-{(R)-[(2R,5R)-5-methyl-2-pyrrolidinyl]hydroxymeth-yl}phenol and m-{(S)-[(2S,5S)-5-methyl-2-pyrrolidinyl]hydroxymeth-yl}phenol]	< 25%	> 75%
CC1(C)C[C@@H]([C@@H](O)c2ccccc2F)N1 [Compound 205, (S)-[(S)-4,4-dimethyl-2-azetidinyl](o-fluorophenyl)methanol]	< 25%	25 to 50%
CO[C@H]1CC[C@H](CCNC[C@H](O)c2cccc(F)c2)CC1 [Compound 224, (R)-1-(m-fluorophenyl)-2-{2-[(1r,4R)-4-methoxycyclohexyl]ethyl-amino}-1-ethanol]	< 25%	25 to 50%
CO[C@H]1CC[C@@H](CNC[C@H](O)c2cncc(F)c2)CC1 [Compound 246, (R)-1-(5-fluoro-3-pyridyl)-2-({[(1s,4S)-4-methoxycyclohexyl]meth-yl}amino)-1-ethanol]	< 25%	50 to 75%
C[C@H]1CC[C@@H]([C@H](O)c2ccccc2)N1 (racemic) [Compound 38, Racemic mixture of (R)-[(2S,5S)-5-methyl-2-pyrrolidinyl]phenylmeth-anol and (S)-[(2R,5R)-5-methyl-2-pyrrolidinyl]phenylmeth-anol]	< 25%	25 to 50%
O[C@@H](c1cccc(F)c1)C12CCC(C/C=C/c3ccccc3)(CC1)N2 [Compound 533, (S)-{4-[(E)-3-phenyl-2-propenyl]-7-azabicyclo[2.2.1]hept-1-yl}(m-fluorophenyl)methanol]	< 25%	< 25%
CC(C)(C)NC[C@H](O)c1ccccc1F [Compound 78, (R)-2-(tert-butylamino)-1-(o-fluorophenyl)-1-ethanol]	25 to 50%	> 75%
CC(C)(C[C@H]1CC[C@@H](NC(=O)C(F)(F)F)CC1)NC[C@H](O)c1cccc(F)c1 [Compound 454, N-[(1S,4s)-4-{2-[(R)-2-(m-fluorophenyl)-2-hydroxyethylamino]-2-methylpropyl}cyclohexyl]trifluoroacetamide]	< 25%	> 75%
COc1ccc(C[C@H]2CC[C@H]([C@H](O)c3cccc(F)c3)N2)cc1 [Compound 374, (R)-{(2R,5R)-5-[(p-methoxyphenyl)methyl]-2-pyrrolidinyl}(m-fluorophenyl)methanol]	< 25%	> 75%
Oc1ccc(C(O)CNCC2CCCCC2)cc1 (stereo not shown) [Compound 6, 2-[(cyclohexylmethyl)ami-no]-1-(p-hydroxyphenyl)-1-ethanol]	< 25%	> 75%
CCOC(=O)CO[C@H]1CC[C@@H](C(C)(C)NC[C@H](O)c2cccc(F)c2)CC1 [Compound 407, ethyl [(1S,4s)-4-{1-[(R)-2-(m-fluorophenyl)-2-hydroxyethylamino]-1-methylethyl}cyclohexyloxy]acetate]	< 25%	50 to 75%
CCCCNCC(O)c1cccnc1 (stereo not shown) [Compound 49, 2-(butylamino)-1-(3-pyridyl)-1-ethanol]	< 25%	50 to 75%
O=C(N[C@H]1CC[C@H](CNC[C@H](O)c2cccc(F)c2)CC1)c1ccccc1 [Compound 315, N-[(1R,4r)-4-{[(R)-2-(m-fluorophenyl)-2-hydroxyethylamino]methyl}cyclohexyl]benzamide]	< 25%	> 75%

Structure (SMILES)	Emax at 10 µM [1]	Emax at 10 µM [2]
CCCCNCC(O)c1cc(Cl)c(N)c(Cl)c1 (stereo not shown) [Compound 29, 1-(4-amino-3,5-dichlorophenyl)-2-(butylamino)-1-ethanol]	25 to 50%	> 75%
CC(=O)N[C@H]1CC[C@@H](CC(C)(C)NC[C@H](O)c2cncc(F)c2)CC1 [Compound 467, N-[(1S,4s)-4-{2-[(R)-2-(5-fluoro-3-pyridyl)-2-hydroxyethylamino]-2-methylpropyl}cyclohexyl]acetamide]	< 25%	> 75%
CO[C@H]1CC[C@H](C[C@@H]2CC[C@H]([C@H](O)c3cccc(F)c3)N2)CC1 [Compound 326, (R)-[(2R,5S)-5-{[(1r,4S)-4-methoxycyclohexyl]methyl}-2-pyrrolidinyl](m-fluorophenyl)methanol]	< 25%	> 75%
CC(=O)N(Cc1ccccc1)[C@H]1CC[C@H](C[C@@H]2CC[C@H]([C@@H](O)c3cccc(F)c3)N2)CC1 [Compound 481, N-[(1S,4r)-4-({(2S,5R)-5-[(S)-(m-fluorophenyl)hydroxymethyl]-2-pyrrolidinyl}methyl)cyclohexyl]-N-benzylacetamide]	< 25%	< 25%
CC1(C)CC[C@@H]([C@H](O)c2cccc(O)c2)N1 [Compound 142, m-{(R)-[(S)-5,5-dimethyl-2-pyrrolidinyl]hydroxymeth-yl}phenol]	< 25%	25 to 50%
CCCC(C)NCC(O)c1ccc(O)cc1 (stereo not shown) [Compound 8, 1-(p-hydroxyphenyl)-2-(1-methylbutylamino)-1-ethanol]	25 to 50%	50 to 75%
COCC12CCC([C@@H](O)c3cccc(F)c3)(CC1)N2 [Compound 329, (S)-(m-fluorophenyl){4-(methoxymethyl)-7-azabicyclo[2.2.1]hept-1-yl}methanol]	< 25%	25 to 50%
CC(C)(C[C@H]1CC[C@H](NC(=O)C2CC2)CC1)NC[C@H](O)c1cccc(F)c1 [Compound 432, N-[(1R,4r)-4-{2-[(R)-2-(m-fluorophenyl)-2-hydroxyethylamino]-2-methylpropyl}cyclohexyl]cyclopropanecarboxmaide]	> 75%	> 75%
CC(C)(C[C@H]1CC[C@H](N)CC1)NC[C@H](O)c1cccc(F)c1 [Compound 371, (R)-2-{1,1-dimethyl-2-[(1r,4R)-4-aminocyclohexyl]ethylamino}-1-(m-fluorophenyl)-1-ethanol]	< 25%	> 75%
CCCCNC[C@H](O)c1ccccc1F [Compound 79, (R)-2-(butylamino)-1-(o-fluorophenyl)-1-ethanol]	< 25%	> 75%
CCCCNCC(O)c1ccc(F)c(F)c1 (stereo not shown) [Compound 56, 2-(butylamino)-1-(3,4-difluorophenyl)-1-ethanol]	< 25%	50 to 75%
CO[C@H]1CC[C@H](C[C@H]2CC[C@H]([C@@H](O)c3cncc(F)c3)N2)CC1 [Compound 340, (S)-[(2R,5R)-5-{[(1r,4R)-4-methoxycyclohexyl]methyl}-2-pyrrolidinyl](5-fluoro-3-pyridyl)methanol]	< 25%	25 to 50%
O[C@H](c1cccc(F)c1)C12CCC(Cc3ccc(OC(F)(F)F)cc3)(CC1)N2 [Compound 501, (R)-(m-fluorophenyl){4-[(p-trifluoromethoxyphenyl)methyl]-7-azabicyclo[2.2.1]hept-1-yl}methanol]	< 25%	< 25%
CC(C)(C[C@H]1CC[C@H](NS(C)(=O)=O)CC1)NC[C@H](O)c1cccc(F)c1 [Compound 382, (R)-2-{1,1-dimethyl-2-[(1r,4R)-4-(mesylamino)cyclohexyl]ethylamino}-1-(m-fluorophenyl)-1-ethanol]	25 to 50%	> 75%
O[C@@H](c1cncc(F)c1)C12CCC(COCc3ccc(OC(F)(F)F)cc3)(CC1)N2 [Compound 489, (S)-(5-fluoro-3-pyridyl)(4-{[(p-trifluoromethoxyphenyl)methoxy]methyl}-7-azabicyclo[2.2.1]hept-1-yl)methanol]	< 25%	< 25%
CC(C)(C)NC[C@H](O)c1ccc(O)cn1 [Compound 95, 6-[(S)-2-(tert-butylamino)-1-hydroxyethyl]-3-pyridinol]	< 25%	50 to 75%
CC(C)(C[C@H]1CC[C@@H](NS(=O)(=O)C(F)(F)F)CC1)NC[C@H](O)c1cncc(F)c1 [Compound 522, (R)-2-{1,1-dimethyl-2-[(1s,4S)-4-(trifluoromesylamino)cychloehxyl]ethylamino}-1-(5-fluoro-3-pyridyl)-1-ethanol]	< 25%	> 75%
